Data as given in patent publication US20240092835A1, “NOVEL PEPTIDES CAPABLE OF ALTERING NK CELL ACTIVITY” (Massachusetts Institute of Technology, priority 2022, published 2024).

Key:
Assay type in all cases: cell-based, human
NKG2A+/NKG2C− NK cells = assay: NK cell activation markers in NKG2A+/NKG2C- NK cells incubated with peptide and K562 expressing HLA-E (inhibition); conditions: NKG2A+/NKG2C- NK cells, K562/HLA-E
Experimental: (§1) A human immortalized myelogenous leukemia cell line (K562), which expresses HLA-E was incubated with novel peptides (Table 1) derived from the human proteome or human cytomegalovirus proteome. […] Controls assessments were also performed using NKG2A−/NKG2C− cells (Tables 10-13). Inhibition was indicated by a decrease in percent cells positive for cell surface markers, while activation was indicated by an increase in percent cells positive for cell surface markers.

NKG2A−/NKG2C+ NK cells = assay: NK cell activation markers in NKG2A-/NKG2C+ NK cells incubated with peptide and K562 expressing HLA-E (activation); conditions: NKG2A-/NKG2C+ NK cells, K562/HLA-E
Experimental: as §1

NKG2A−/NKG2C− NK cells = assay: NK cell activation markers in control NKG2A-/NKG2C- NK cells incubated with peptide and K562 expressing HLA-E
Experimental: as §1

VMAPQSLLL [VMAPQSLLL (PQS), negative control peptide, reference compound]
percentage of CCL3+ NK cells (NKG2A+/NKG2C− NK cells; Trial 1): 49.8%
percentage of CD107a+ NK cells (NKG2A+/NKG2C− NK cells; Trial 1): 29.1%
percentage of IFNG+ NK cells (NKG2A+/NKG2C− NK cells; Trial 1): 10.1%
percentage of TNF+ NK cells (NKG2A+/NKG2C− NK cells; Trial 1): 2.95%
percentage of CCL3+ NK cells (NKG2A+/NKG2C− NK cells; Trial 2): 70.6%
percentage of CD107a+ NK cells (NKG2A+/NKG2C− NK cells; Trial 2): 47.4%
percentage of IFNG+ NK cells (NKG2A+/NKG2C− NK cells; Trial 2): 27.3%
percentage of TNF+ NK cells (NKG2A+/NKG2C− NK cells; Trial 2): 13.3%
percentage of CCL3+ NK cells (NKG2A+/NKG2C− NK cells; Trial 3): 58.2%
percentage of CD107a+ NK cells (NKG2A+/NKG2C− NK cells; Trial 3): 46.5%
percentage of IFNG+ NK cells (NKG2A+/NKG2C− NK cells; Trial 3): 35.1%
percentage of TNF+ NK cells (NKG2A+/NKG2C− NK cells; Trial 3): 18.8%
percentage of CCL3+ NK cells (NKG2A+/NKG2C− NK cells; Trial 4): 50.7%
percentage of CD107a+ NK cells (NKG2A+/NKG2C− NK cells; Trial 4): 40.7%
percentage of IFNG+ NK cells (NKG2A+/NKG2C− NK cells; Trial 4): 23.1%
percentage of TNF+ NK cells (NKG2A+/NKG2C− NK cells; Trial 4): 11.6%
percentage of CCL3+ NK cells (NKG2A+/NKG2C− NK cells; Trial 5): 47.7%
percentage of CD107a+ NK cells (NKG2A+/NKG2C− NK cells; Trial 5): 30.1%
percentage of IFNG+ NK cells (NKG2A+/NKG2C− NK cells; Trial 5): 14.1%
percentage of TNF+ NK cells (NKG2A+/NKG2C− NK cells; Trial 5): 6.1%
percentage of CCL3+ NK cells (NKG2A+/NKG2C− NK cells; Trial 6): 31.3%
percentage of CD107a+ NK cells (NKG2A+/NKG2C− NK cells; Trial 6): 24.4%
percentage of IFNG+ NK cells (NKG2A+/NKG2C− NK cells; Trial 6): 8.37%
percentage of TNF+ NK cells (NKG2A+/NKG2C− NK cells; Trial 6): 4.14%
percentage of CCL3+ NK cells (NKG2A−/NKG2C+ NK cells; Trial 1): 47%
percentage of CD107+ NK cells (NKG2A−/NKG2C+ NK cells; Trial 1): 25.2%
percentage of IFNG+ NK cells (NKG2A−/NKG2C+ NK cells; Trial 1): 10.6%
percentage of TNF+ NK cells (NKG2A−/NKG2C+ NK cells; Trial 1): 4.96%
percentage of CCL3+ NK cells (NKG2A−/NKG2C+ NK cells; Trial 2): 55.3%
percentage of CD107+ NK cells (NKG2A−/NKG2C+ NK cells; Trial 2): 32.8%
percentage of IFNG+ NK cells (NKG2A−/NKG2C+ NK cells; Trial 2): 12.7%
percentage of TNF+ NK cells (NKG2A−/NKG2C+ NK cells; Trial 2): 9.31%
percentage of CCL3+ NK cells (NKG2A−/NKG2C+ NK cells; Trial 3): 69.4%
percentage of CD107+ NK cells (NKG2A−/NKG2C+ NK cells; Trial 3): 58.6%
percentage of IFNG+ NK cells (NKG2A−/NKG2C+ NK cells; Trial 3): 40.7%
percentage of TNF+ NK cells (NKG2A−/NKG2C+ NK cells; Trial 3): 31.2%
percentage of CCL3+ NK cells (NKG2A−/NKG2C+ NK cells; Trial 4): 58.6%
percentage of CD107+ NK cells (NKG2A−/NKG2C+ NK cells; Trial 4): 53.6%
percentage of IFNG+ NK cells (NKG2A−/NKG2C+ NK cells; Trial 4): 35.6%
percentage of TNF+ NK cells (NKG2A−/NKG2C+ NK cells; Trial 4): 25.7%
percentage of CCL3+ NK cells (NKG2A−/NKG2C+ NK cells; Trial 5): 55.4%
percentage of CD107+ NK cells (NKG2A−/NKG2C+ NK cells; Trial 5): 43%
percentage of IFNG+ NK cells (NKG2A−/NKG2C+ NK cells; Trial 5): 19.9%
percentage of TNF+ NK cells (NKG2A−/NKG2C+ NK cells; Trial 5): 14.7%
percentage of CCL3+ NK cells (NKG2A−/NKG2C+ NK cells; Trial 6): 32.7%
percentage of CD107+ NK cells (NKG2A−/NKG2C+ NK cells; Trial 6): 22.3%
percentage of IFNG+ NK cells (NKG2A−/NKG2C+ NK cells; Trial 6): 10.3%
percentage of TNF+ NK cells (NKG2A−/NKG2C+ NK cells; Trial 6): 5.08%
percentage CCL3+ NK cells (NKG2A−/NKG2C− NK cells; Trial 1): 35.1%
percentage CD107+ NK cells (NKG2A−/NKG2C− NK cells; Trial 1): 24.1%
percentage TNF+ NK cells (NKG2A−/NKG2C− NK cells; Trial 1): 3.46%
percentage of IFNG+ NK cells (NKG2A−/NKG2C− NK cells; Trial 1): 14%
percentage CCL3+ NK cells (NKG2A−/NKG2C− NK cells; Trial 2): 57.7%
percentage CD107+ NK cells (NKG2A−/NKG2C− NK cells; Trial 2): 37.9%
percentage TNF+ NK cells (NKG2A−/NKG2C− NK cells; Trial 2): 9.07%
percentage of IFNG+ NK cells (NKG2A−/NKG2C− NK cells; Trial 2): 27.9%
percentage CCL3+ NK cells (NKG2A−/NKG2C− NK cells; Trial 3): 59.4%
percentage CD107+ NK cells (NKG2A−/NKG2C− NK cells; Trial 3): 53%
percentage TNF+ NK cells (NKG2A−/NKG2C− NK cells; Trial 3): 22.6%
percentage of IFNG+ NK cells (NKG2A−/NKG2C− NK cells; Trial 3): 48.3%
percentage CCL3+ NK cells (NKG2A−/NKG2C− NK cells; Trial 4): 35%
percentage CD107+ NK cells (NKG2A−/NKG2C− NK cells; Trial 4): 28%
percentage TNF+ NK cells (NKG2A−/NKG2C− NK cells; Trial 4): 8.23%
percentage of IFNG+ NK cells (NKG2A−/NKG2C− NK cells; Trial 4): 19%
percentage CCL3+ NK cells (NKG2A−/NKG2C− NK cells; Trial 5): 34%
percentage CD107+ NK cells (NKG2A−/NKG2C− NK cells; Trial 5): 24.4%
percentage TNF+ NK cells (NKG2A−/NKG2C− NK cells; Trial 5): 8.67%
percentage of IFNG+ NK cells (NKG2A−/NKG2C− NK cells; Trial 5): 18.6%
percentage CCL3+ NK cells (NKG2A−/NKG2C− NK cells; Trial 6): 22.4%
percentage CD107+ NK cells (NKG2A−/NKG2C− NK cells; Trial 6): 19.5%
percentage TNF+ NK cells (NKG2A−/NKG2C− NK cells; Trial 6): 4.08%
percentage of IFNG+ NK cells (NKG2A−/NKG2C− NK cells; Trial 6): 10%
